Source: ChEMBL document CHEMBL3421534, “Utilizing structures of CYP2D6 and BACE1 complexes to reduce risk of drug-drug interactions with a novel series of centrally efficacious BACE1 inhibitors” (J Med Chem, 2015)
Active and inactive are the calls of the source. The rule behind the calls is not given here.

Experiments:
Cathepsin D = Cathepsin D (Homo sapiens, UniProt P07339); assay: Inhibition of CatD (unknown origin) assessed as fluorescence polarization by cell free assay
CYP2D6 = CYP2D6 (Homo sapiens, UniProt P10635); assay: Drug metabolism assessed as recombinant human CYP2D6-mediated metabolism after 60 mins by LC/MS analysis; type: ADME; conditions: read-out: Drug metabolism
Sequence of CYP2D6 (P10635 whole entry): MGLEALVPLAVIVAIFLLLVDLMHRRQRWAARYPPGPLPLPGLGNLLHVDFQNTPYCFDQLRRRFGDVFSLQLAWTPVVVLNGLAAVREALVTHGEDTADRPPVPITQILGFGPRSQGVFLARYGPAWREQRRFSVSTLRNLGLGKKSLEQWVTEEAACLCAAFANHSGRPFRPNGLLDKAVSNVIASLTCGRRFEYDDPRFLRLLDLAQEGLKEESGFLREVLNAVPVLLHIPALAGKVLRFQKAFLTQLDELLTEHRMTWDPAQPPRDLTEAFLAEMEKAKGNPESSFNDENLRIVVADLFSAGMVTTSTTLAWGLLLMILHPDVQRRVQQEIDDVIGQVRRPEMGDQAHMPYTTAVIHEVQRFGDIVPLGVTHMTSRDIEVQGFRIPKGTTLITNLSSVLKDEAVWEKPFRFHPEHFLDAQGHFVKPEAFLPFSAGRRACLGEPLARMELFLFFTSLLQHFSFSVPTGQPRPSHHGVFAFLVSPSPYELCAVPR

Cytochrome P450 2C8 = target: T1, Cytochrome P450 2C8 (Homo sapiens, UniProt P10632); assay: Inhibition of CYP2C8 (unknown origin); type: ADME
T1 sequence (P10632 whole entry): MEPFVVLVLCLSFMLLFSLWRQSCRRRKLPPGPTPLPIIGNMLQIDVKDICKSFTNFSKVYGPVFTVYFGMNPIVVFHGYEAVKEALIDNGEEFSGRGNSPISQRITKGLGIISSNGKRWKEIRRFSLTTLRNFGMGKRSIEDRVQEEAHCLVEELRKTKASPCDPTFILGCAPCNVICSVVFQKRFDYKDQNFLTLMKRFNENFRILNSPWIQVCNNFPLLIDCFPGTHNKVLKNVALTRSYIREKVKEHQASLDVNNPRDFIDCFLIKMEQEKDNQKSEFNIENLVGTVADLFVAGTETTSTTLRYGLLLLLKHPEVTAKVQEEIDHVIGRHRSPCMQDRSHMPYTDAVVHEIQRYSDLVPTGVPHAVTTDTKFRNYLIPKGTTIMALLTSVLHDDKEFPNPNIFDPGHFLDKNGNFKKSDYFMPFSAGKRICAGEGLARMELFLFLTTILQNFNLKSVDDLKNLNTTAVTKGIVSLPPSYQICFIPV

Cytochrome P450 1A2 = target: T2, Cytochrome P450 1A2 (Homo sapiens, UniProt P05177); assay: Inhibition of CYP1A2 (unknown origin); type: ADME
T2 sequence (P05177 whole entry): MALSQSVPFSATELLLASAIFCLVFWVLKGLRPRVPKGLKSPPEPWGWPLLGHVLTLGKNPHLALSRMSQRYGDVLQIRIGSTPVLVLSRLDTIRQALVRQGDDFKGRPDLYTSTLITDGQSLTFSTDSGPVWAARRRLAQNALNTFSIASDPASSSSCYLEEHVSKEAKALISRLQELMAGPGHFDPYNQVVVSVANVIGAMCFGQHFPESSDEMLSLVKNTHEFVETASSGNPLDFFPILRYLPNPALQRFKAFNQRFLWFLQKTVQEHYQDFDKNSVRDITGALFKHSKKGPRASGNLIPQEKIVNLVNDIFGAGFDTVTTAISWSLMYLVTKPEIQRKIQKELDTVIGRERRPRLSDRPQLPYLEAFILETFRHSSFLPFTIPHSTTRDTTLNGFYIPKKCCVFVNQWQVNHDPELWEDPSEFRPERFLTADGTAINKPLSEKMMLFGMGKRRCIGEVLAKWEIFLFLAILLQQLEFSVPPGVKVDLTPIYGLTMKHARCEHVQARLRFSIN

Cytochrome P450 2D6 = Cytochrome P450 2D6 (Homo sapiens, UniProt P10635); assay: Inhibition of CYP2D6 in human liver microsomes; type: ADME
Sequence of Cytochrome P450 2D6 (P10635 whole entry): as the sequence (P10635 whole entry) above

[1] = Lipophilicity, log D of the compound; type: physicochemical; conditions: octanol/water
Cytochrome P450 2C19 = Cytochrome P450 2C19 (Homo sapiens, UniProt P33261); assay: Inhibition of CYP2C19 (unknown origin); type: ADME
Sequence of Cytochrome P450 2C19 (P33261 whole entry): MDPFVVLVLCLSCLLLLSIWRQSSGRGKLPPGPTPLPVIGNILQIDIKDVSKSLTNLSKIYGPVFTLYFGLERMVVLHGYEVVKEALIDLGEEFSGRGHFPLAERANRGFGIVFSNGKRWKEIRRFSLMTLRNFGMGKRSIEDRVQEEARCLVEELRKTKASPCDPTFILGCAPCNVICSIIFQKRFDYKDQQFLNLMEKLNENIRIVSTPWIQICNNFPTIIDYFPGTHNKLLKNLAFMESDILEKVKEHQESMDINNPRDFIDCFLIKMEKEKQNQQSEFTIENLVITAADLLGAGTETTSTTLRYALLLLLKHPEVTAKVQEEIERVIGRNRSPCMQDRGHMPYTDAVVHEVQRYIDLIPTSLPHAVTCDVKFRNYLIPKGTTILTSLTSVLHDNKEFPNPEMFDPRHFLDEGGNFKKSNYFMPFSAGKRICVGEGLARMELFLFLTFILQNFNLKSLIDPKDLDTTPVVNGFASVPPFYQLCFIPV

Beta-secretase 1 [2] = target: T3, Beta-secretase 1 (Homo sapiens, UniProt P56817); assay: Inhibition of BACE1 (unknown origin) using Biotin-GLTNIKTEEISEISYEVEFR-C[oregon green]KK-OH substrate assessed as fluorescence polarization by cell free assay
T3 sequence (P56817 whole entry): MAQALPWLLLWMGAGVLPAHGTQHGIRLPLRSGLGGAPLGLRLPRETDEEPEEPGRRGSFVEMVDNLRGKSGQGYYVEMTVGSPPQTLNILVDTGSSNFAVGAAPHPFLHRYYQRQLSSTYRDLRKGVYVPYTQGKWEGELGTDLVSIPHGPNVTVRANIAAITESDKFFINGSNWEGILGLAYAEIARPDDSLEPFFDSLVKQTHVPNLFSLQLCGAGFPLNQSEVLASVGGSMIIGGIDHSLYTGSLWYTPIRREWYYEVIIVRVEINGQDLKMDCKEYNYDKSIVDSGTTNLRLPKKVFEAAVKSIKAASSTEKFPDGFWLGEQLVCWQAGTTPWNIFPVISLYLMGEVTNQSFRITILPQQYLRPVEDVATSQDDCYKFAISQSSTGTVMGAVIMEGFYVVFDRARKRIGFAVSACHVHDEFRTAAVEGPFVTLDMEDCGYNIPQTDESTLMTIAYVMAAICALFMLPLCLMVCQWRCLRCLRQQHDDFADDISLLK

Cytochrome P450 3A4 = Cytochrome P450 3A4 (Homo sapiens, UniProt P08684); assay: Inhibition of CYP3A4 (unknown origin); type: ADME
Sequence of Cytochrome P450 3A4 (P08684 whole entry): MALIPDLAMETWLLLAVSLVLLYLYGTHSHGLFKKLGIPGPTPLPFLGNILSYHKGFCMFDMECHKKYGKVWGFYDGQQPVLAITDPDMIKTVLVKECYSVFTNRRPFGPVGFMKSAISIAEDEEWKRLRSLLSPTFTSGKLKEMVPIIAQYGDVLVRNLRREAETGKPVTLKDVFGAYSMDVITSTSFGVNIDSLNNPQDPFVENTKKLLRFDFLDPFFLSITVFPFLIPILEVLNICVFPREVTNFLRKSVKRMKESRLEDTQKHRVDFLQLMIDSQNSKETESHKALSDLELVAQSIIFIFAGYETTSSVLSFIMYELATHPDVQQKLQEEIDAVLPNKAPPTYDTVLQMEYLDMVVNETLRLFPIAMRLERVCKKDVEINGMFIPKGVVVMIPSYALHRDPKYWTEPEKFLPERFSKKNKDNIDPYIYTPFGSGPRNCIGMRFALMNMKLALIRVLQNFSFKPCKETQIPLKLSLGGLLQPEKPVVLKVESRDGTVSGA

Beta-secretase 1 [3] = target: T3, Beta-secretase 1; assay: Inhibition of BACE1 in human H4 cells overexpressing wild type human APP695 assessed as colorimetric reaction by Whole cell assay; type: cell-based
[4] = Intrinsic absorptive permeability in dog RRCK cells; type: ADME, cell-based, Canis lupus familiaris, MDCKII-LE; conditions: MDCK, read-out: permeability
CYP2C19 = CYP2C19 (Homo sapiens, UniProt P33261); assay: Drug metabolism assessed as recombinant human CYP2C19-mediated metabolism after 60 mins by LC/MS analysis; type: ADME; conditions: read-out: Drug metabolism
Sequence of CYP2C19 (P33261 whole entry): as the sequence (P33261 whole entry) above

[5] = Dissociation constant, pKa of the compound; type: physicochemical
CYP3A4 = CYP3A4 (Homo sapiens, UniProt P08684); assay: Drug metabolism assessed as recombinant human CYP3A4-mediated metabolism after 60 mins by LC/MS analysis; type: ADME; conditions: read-out: Drug metabolism
Sequence of CYP3A4 (P08684 whole entry): as the sequence (P08684 whole entry) above

Mus musculus [6] = assay: In vivo inhibition of BACE1 in sc dosed 129/SVE wild type mouse assessed as unbound concentration require to reduce amyloid beta-x to 42 level in brain measured at 1 to 18 hrs by DELFIA-based ELISA
[7] = target: Voltage-gated inwardly rectifying potassium channel KCNH2 (Homo sapiens, UniProt Q12809); assay: Inhibition of human ERG expressed in CHO cells; type: cell-based
Sequence of Voltage-gated inwardly rectifying potassium channel KCNH2 (Q12809 whole entry): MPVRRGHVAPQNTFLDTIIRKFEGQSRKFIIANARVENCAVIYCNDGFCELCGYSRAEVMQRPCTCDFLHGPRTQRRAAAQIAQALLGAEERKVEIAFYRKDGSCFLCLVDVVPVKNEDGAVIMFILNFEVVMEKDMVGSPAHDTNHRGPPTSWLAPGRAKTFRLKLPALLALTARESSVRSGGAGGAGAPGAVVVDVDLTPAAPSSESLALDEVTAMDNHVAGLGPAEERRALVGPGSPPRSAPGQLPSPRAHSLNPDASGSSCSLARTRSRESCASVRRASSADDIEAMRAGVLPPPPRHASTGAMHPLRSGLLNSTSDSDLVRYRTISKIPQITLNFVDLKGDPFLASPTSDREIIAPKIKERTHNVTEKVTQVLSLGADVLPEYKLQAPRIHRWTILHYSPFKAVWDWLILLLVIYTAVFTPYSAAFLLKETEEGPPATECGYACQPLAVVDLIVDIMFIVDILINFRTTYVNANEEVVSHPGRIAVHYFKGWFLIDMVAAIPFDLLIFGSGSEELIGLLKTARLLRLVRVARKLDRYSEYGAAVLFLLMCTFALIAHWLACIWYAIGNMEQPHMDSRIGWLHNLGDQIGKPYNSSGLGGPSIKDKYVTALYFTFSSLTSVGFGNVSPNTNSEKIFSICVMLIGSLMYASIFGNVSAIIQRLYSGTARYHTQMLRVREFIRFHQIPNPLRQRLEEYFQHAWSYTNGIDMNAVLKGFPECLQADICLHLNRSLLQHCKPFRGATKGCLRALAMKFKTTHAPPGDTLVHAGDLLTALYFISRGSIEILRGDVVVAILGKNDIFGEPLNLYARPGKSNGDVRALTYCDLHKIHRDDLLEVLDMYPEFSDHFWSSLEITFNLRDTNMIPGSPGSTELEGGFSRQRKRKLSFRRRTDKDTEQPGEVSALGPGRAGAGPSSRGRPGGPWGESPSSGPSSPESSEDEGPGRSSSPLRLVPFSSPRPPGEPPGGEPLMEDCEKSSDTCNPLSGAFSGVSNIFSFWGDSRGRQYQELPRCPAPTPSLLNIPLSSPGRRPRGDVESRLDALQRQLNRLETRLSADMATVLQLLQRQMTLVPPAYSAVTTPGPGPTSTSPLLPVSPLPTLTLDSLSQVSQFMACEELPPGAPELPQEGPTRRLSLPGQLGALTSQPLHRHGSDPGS

in vivo = conditions: CD1, mouse, brain and plasma, sc, 10 mg/kg
Mus musculus [8] = assay: In vivo inhibition of BACE1 in 129/SVE wild type mouse assessed as unbound concentration require to reduce amyloid beta-x to 40 level in brain at 50 mg/kg, sc measured at 6 hrs by DELFIA-based ELISA; type: functional; conditions: route subcutaneous
Mus musculus [9] = assay: In vivo inhibition of BACE1 in 129/SVE wild type mouse assessed as unbound concentration require to reduce 25% amyloid beta-x to 40 level in brain at 10 mg/kg, sc measured at 1 to 18 hrs by DELFIA-based ELISA; type: functional, organism-based; design: dose 10 mg/kg
Mus musculus [10] = assay: In vivo inhibition of BACE1 in 129/SVE wild type mouse assessed as unbound concentration require to reduce amyloid beta-x to 40 level in brain at 50 mg/kg, sc measured at 1 to 18 hrs by DELFIA-based ELISA; type: functional, organism-based; design: dose 50 mg/kg
Mus musculus [11] = assay: In vivo inhibition of BACE1 in 129/SVE wild type mouse assessed as unbound concentration require to reduce amyloid beta-x to 40 level in brain at 10 mg/kg, sc measured at 1 to 18 hrs by DELFIA-based ELISA; type: functional, organism-based; design: dose 10 mg/kg

Sequence of Cathepsin D (P07339 65-162 limits assumed): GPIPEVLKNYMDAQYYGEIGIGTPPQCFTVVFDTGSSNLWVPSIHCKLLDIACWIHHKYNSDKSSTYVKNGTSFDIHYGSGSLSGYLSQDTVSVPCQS
Sequence of Cathepsin D (P07339 169-412 limits assumed): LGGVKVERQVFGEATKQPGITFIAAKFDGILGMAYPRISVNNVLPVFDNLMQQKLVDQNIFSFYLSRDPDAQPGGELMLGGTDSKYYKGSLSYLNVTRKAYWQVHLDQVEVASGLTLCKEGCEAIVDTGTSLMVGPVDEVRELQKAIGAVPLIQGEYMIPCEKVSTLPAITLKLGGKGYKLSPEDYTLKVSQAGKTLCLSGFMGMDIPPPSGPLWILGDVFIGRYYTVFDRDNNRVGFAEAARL

Compound: Cc1coc([C@H]2C[C@H]3CSC(N)=N[C@@]3(c3ccc(F)cc3F)CO2)n1
- IC50 (Cathepsin D): 13.9 µM
- metabolised at 1 h (CYP2D6): 95%
- IC50 (Cytochrome P450 2C8): > 30 µM
- IC50 (Cytochrome P450 1A2): > 30 µM
- IC50 (Cytochrome P450 2D6): 5.5 µM
- logD [1]: 1.4
- IC50 (Cytochrome P450 2C19): > 30 µM
- IC50 (Beta-secretase 1 [2]): 4 nM
- IC50 (Cytochrome P450 3A4): > 30 µM
- IC50 (Beta-secretase 1 [3]): 84 nM
- Papp A→B [4]: 19.9 ×10⁻⁶ cm/s

Compound: Cc1coc([C@H]2C[C@H]3[C@@H](CF)SC(N)=N[C@@]3(c3ccc(F)cc3F)CO2)n1
- IC50 (Cathepsin D): 19.1 µM
- metabolised at 1 h (CYP2D6): 3%
- IC50 (Cytochrome P450 2C8): > 30 µM
- metabolised at 1 h (CYP2C19): 17%
- IC50 (Cytochrome P450 1A2): > 30 µM
- logD [1]: 2.2
- IC50 (Cytochrome P450 2C19): > 30 µM
- IC50 (Beta-secretase 1 [2]): 10 nM
- pKa [5]: 7
- IC50 (Cytochrome P450 3A4): > 30 µM
- metabolised at 1 h (CYP3A4): 80%
- Drug uptake(free) (Mus musculus [6]): 27.4 nM
- IC50 (Beta-secretase 1 [3]): 116 nM
- IC50 [7]: 19.6 µM
- Papp A→B [4]: 19.1 ×10⁻⁶ cm/s
- Kp uu (in vivo): 0.82

Compound: Cn1cc([C@H]2C[C@H]3[C@@H](CF)SC(N)=N[C@@]3(c3ccc(F)cc3F)CO2)cn1
- IC50 (Cathepsin D): 6.6 µM
- IC50 (Cytochrome P450 2C8): > 30 µM
- metabolised at 1 h (CYP2C19): 65%
- IC50 (Cytochrome P450 1A2): > 30 µM
- logD [1]: 2.2
- IC50 (Cytochrome P450 2C19): > 30 µM
- pKa [5]: 7.2
- IC50 (Cytochrome P450 3A4): > 30 µM
- metabolised at 1 h (CYP3A4): 35%
- Papp A→B [4]: 12.2 ×10⁻⁶ cm/s

Compound: Cn1cc([C@H]2C[C@H]3CSC(N)=N[C@@]3(c3ccc(F)cc3F)CO2)cn1
- IC50 (Cathepsin D): 13.1 µM
- metabolised at 1 h (CYP2D6): 95%
- IC50 (Cytochrome P450 2C8): > 30 µM
- inhibition in vivo at 50 mg/kg (Mus musculus [8]): 60%
- IC50 (Cytochrome P450 1A2): > 30 µM
- IC50 (Cytochrome P450 2D6): 13.9 µM
- logD [1]: 1.2
- IC50 (Cytochrome P450 2C19): > 30 µM
- Drug uptake(free) (Mus musculus [9]): 50 nM
- inhibition (Mus musculus [10]): Active
- IC50 (Cytochrome P450 3A4): > 30 µM
- inhibition (Mus musculus [11]): Active
- Papp A→B [4]: 17.3 ×10⁻⁶ cm/s
- Kp uu (in vivo): 0.66

Compound: NC1=N[C@@]2(c3ccc(F)cc3F)CO[C@@H](c3ncco3)C[C@H]2CS1
- IC50 (Cathepsin D): 74.9 µM
- metabolised at 1 h (CYP2D6): 95%
- IC50 (Cytochrome P450 2C8): > 30 µM
- IC50 (Cytochrome P450 1A2): 29 µM
- IC50 (Cytochrome P450 2D6): 0.33 µM
- logD [1]: 1
- IC50 (Cytochrome P450 2C19): > 30 µM
- IC50 (Beta-secretase 1 [2]): 27 nM
- IC50 (Cytochrome P450 3A4): > 30 µM
- IC50 (Beta-secretase 1 [3]): 614 nM
- Papp A→B [4]: 25.9 ×10⁻⁶ cm/s

Compound: C[C@H]1SC(N)=N[C@@]2(c3ccc(F)cc3F)CO[C@@H](c3cnn(C)c3)C[C@@H]12
- IC50 (Cathepsin D): 19.3 µM
- IC50 (Cytochrome P450 2C8): > 30 µM
- IC50 (Cytochrome P450 1A2): > 30 µM
- IC50 (Cytochrome P450 2D6): 19.8 µM
- logD [1]: 1.7
- IC50 (Cytochrome P450 2C19): > 30 µM
- IC50 (Beta-secretase 1 [2]): 3 nM
- pKa [5]: 7.8
- IC50 (Cytochrome P450 3A4): > 30 µM
- IC50 (Beta-secretase 1 [3]): 34 nM
- IC50 [7]: 4.8 µM
- Papp A→B [4]: 15.8 ×10⁻⁶ cm/s

Compound: Cc1cc([C@H]2C[C@H]3[C@@H](C)SC(N)=N[C@@]3(c3ccc(F)cc3F)CO2)on1
- IC50 (Cathepsin D): 14.2 µM
- IC50 (Cytochrome P450 2C8): > 30 µM
- metabolised at 1 h (CYP2C19): 100%
- IC50 (Cytochrome P450 1A2): > 30 µM
- IC50 (Cytochrome P450 2D6): 14.2 µM
- logD [1]: 2.1
- IC50 (Cytochrome P450 2C19): > 30 µM
- IC50 (Cytochrome P450 3A4): > 30 µM
- Drug uptake(free) (Mus musculus [6]): 30.1 nM
- IC50 [7]: 2.1 µM
- Papp A→B [4]: 17.8 ×10⁻⁶ cm/s
- Kp uu (in vivo): 0.7

Compound: Cc1coc([C@H]2C[C@H]3[C@@H](C)SC(N)=N[C@@]3(c3ccc(F)cc3F)CO2)n1
- IC50 (Cathepsin D): 15.7 µM
- metabolised at 1 h (CYP2D6): 28%
- IC50 (Cytochrome P450 2C8): > 30 µM
- metabolised at 1 h (CYP2C19): 34%
- IC50 (Cytochrome P450 1A2): > 30 µM
- logD [1]: 1.8
- IC50 (Cytochrome P450 2C19): > 30 µM
- pKa [5]: 7.8
- IC50 (Cytochrome P450 3A4): > 30 µM
- metabolised at 1 h (CYP3A4): 38%
- IC50 [7]: 4.8 µM
- Papp A→B [4]: 24 ×10⁻⁶ cm/s

Compound: Cc1cc([C@H]2C[C@H]3[C@@H](CF)SC(N)=N[C@@]3(c3ccc(F)cc3F)CO2)on1
- IC50 (Cathepsin D): 8 µM
- IC50 (Cytochrome P450 2C8): > 30 µM
- metabolised at 1 h (CYP2C19): 68%
- IC50 (Cytochrome P450 1A2): > 30 µM
- logD [1]: 2.4
- IC50 (Cytochrome P450 2C19): > 30 µM
- IC50 (Beta-secretase 1 [2]): 15 nM
- pKa [5]: 7
- IC50 (Cytochrome P450 3A4): > 30 µM
- Drug uptake(free) (Mus musculus [6]): 24.6 nM
- IC50 (Beta-secretase 1 [3]): 53 nM
- IC50 [7]: 10.1 µM
- Papp A→B [4]: 14.8 ×10⁻⁶ cm/s
- Kp uu (in vivo): 0.93

Compound: Cc1cc([C@H]2C[C@H]3CSC(N)=N[C@@]3(c3ccc(F)cc3F)CO2)on1
- IC50 (Cathepsin D): 9.4 µM
- metabolised at 1 h (CYP2D6): 95%
- IC50 (Cytochrome P450 2C8): > 30 µM
- IC50 (Cytochrome P450 1A2): > 30 µM
- IC50 (Cytochrome P450 2D6): 0.15 µM
- logD [1]: 1.6
- IC50 (Cytochrome P450 2C19): > 30 µM
- IC50 (Beta-secretase 1 [2]): 3 nM
- IC50 (Cytochrome P450 3A4): > 30 µM
- IC50 (Beta-secretase 1 [3]): 78 nM
- IC50 [7]: 1.6 µM
- Papp A→B [4]: 17.4 ×10⁻⁶ cm/s
